# Literature values in patent US12565499B2, “Compounds and methods” (INTRA-CELLULAR THERAPIES, INC., priority 2012, dated 2026).
# Test system: mice
# Details: chronic administration; Berton et al., Science (2006) 311:864-868
compound,measurement,value
CNCCC(Oc1ccc(C(F)(F)F)cc1)c1ccccc1 (stereo not shown) [fluoxetine],reversal of isolation behavior in the social defeat/resident intruder model,reversed
